Test results taken from patent publication US20210267203A1, “PESTICIDALLY ACTIVE AZOLE-AMIDE COMPOUNDS” (SYNGENTA PARTICIPATIONS AG, priority 2018, published 2021).

Tests used:
Type in all cases: in vivo
[1] = system: Diabrotica Balteata (Corn Root Worm); experiment: Example B1: Diabrotica balteata (corn root worm), maize sprouts sprayed, L2 larvae; conditions: 96 h, application rate 200 ppm, 4 days after infestation, read-out: effect in at least one of the two categories (mortality or growth inhibition)
Summary of the method: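 Maize sprouts on agar sprayed with aqueous dilutions of 10,000 ppm DMSO stocks, dried, then infested with 6–10 L2 larvae per well. Mortality and growth inhibition scored against untreated samples 4 days after infestation; rates of 200 ppm.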

[2] = system: Euschistus heros (Neotropical Brown Stink Bug); experiment: Example B2: Euschistus heros (neotropical brown stink bug), soybean leaves sprayed, N2 nymphs; conditions: 120 h, application rate 200 ppm, 5 days after infestation, read-out: effect in at least one of the two categories (mortality or growth inhibition)
Summary of the method: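 Soybean leaves on agar sprayed with aqueous test solutions made from 10,000 ppm DMSO stocks, dried, then infested with N2 nymphs. Mortality and growth inhibition scored versus untreated samples 5 days after infestation; activity threshold at 200 ppm.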

[3] = system: Frankliniella occidentalis (Western Flower Thrips); experiment: Example B3: Frankliniella occidentalis (western flower thrips), feeding/contact activity; conditions: 168 h, application rate 200 ppm, mixed ages, 7 days after infestation
Experimental: Example B3: Frankliniella occidentalis (Western Flower Thrips):Feeding/Contact Activity
Sunflower leaf discs were placed on agar in 24-well microtiter plates and sprayed with aqueous test solutions prepared from 10,000 DMSO stock solutions. After drying the leaf discs were infested with a Frankliniella population of mixed ages. The samples were assessed for mortality 7 days after infestation.

[4] = system: Chilo suppressalis (Striped Rice Stemborer); experiment: Example B4: Chilo suppressalis (striped rice stemborer), artificial diet, L2 larvae; conditions: 144 h, application rate 200 ppm, 6 days after infestation
Summary of the method: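 L2 larvae (6-8 per well) placed on artificial diet treated with aqueous test solutions prepared from 10,000 ppm DMSO stocks, after drying. Mortality, anti-feeding and growth inhibition scored against untreated samples 6 days after infestation; control means at least one category exceeds untreated.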

[5] = system: Plutella xylostella (Diamond Back Moth); experiment: Example B5: Plutella xylostella (diamond back moth), artificial diet, 24-well, eggs; conditions: 192 h, application rate 200 ppm, 8 days after infestation, read-out: effect in at least one of the two categories (mortality or growth inhibition)
Summary of the method: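 Artificial diet in 24-well plates treated with aqueous dilutions of 10,000 ppm DMSO stocks, dried, then infested with Plutella eggs. Mortality and growth inhibition scored against untreated samples 8 days after infestation; activity rated at 200 ppm application rate.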

[6] = system: Myzus persicae (Green Peach Aphid); experiment: Example B6: Myzus persicae (green peach aphid), feeding/contact activity; conditions: 144 h, application rate 200 ppm, 6 days after infestation
Experimental: Example B6: Myzus persicae (Green Peach Aphid):Feeding/Contact Activity
Sunflower leaf discs were placed onto agar in a 24-well microtiter plate and sprayed with aqueous test solutions prepared from 10,000 ppm DMSO stock solutions. After drying, the leaf discs were infested with an aphid population of mixed ages. The samples were assessed for mortality 6 days after infestation.

[7] = system: Myzus persicae (Green Peach Aphid); experiment: Example B7: Myzus persicae (green peach aphid), systemic activity; conditions: 144 h, test rate 24 ppm, pea seedling roots in test solution, 6 days
Experimental: Example B7: Myzus persicae (Green Peach Aphid), Systemic Activity
Roots of pea seedlings infested with an aphid population of mixed ages were placed directly into aqueous test solutions prepared from 10,000 DMSO stock solutions. The samples were assessed for mortality 6 days after placing seedlings into test solutions.

[8] = system: Myzus persicae (Green Peach Aphid); experiment: Example B8: Myzus persicae (green peach aphid), intrinsic activity; conditions: 120 h, test rate 12 ppm, sucrose solution, 24-well, 5 days after infestation
Summary of the method: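 Compounds diluted from 10,000 ppm DMSO stock were mixed with sucrose solution under stretched Parafilm in a sachet feeding setup, with aphid-infested pea seedlings placed on the membrane. Mortality was scored 5 days after infestation.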

[9] = system: Spodoptera littoralis (Egyptian Cotton Leaf Worm); experiment: Example B9: Spodoptera littoralis (Egyptian cotton leaf worm), cotton leaf discs sprayed, L1 larvae; conditions: foliar, 72 h, application rate 200 ppm, 3 days after infestation
Summary of the method: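 Leaf discs on agar sprayed with aqueous dilutions from 10,000 ppm DMSO stock, dried, then infested with five L1 larvae. Mortality, anti-feeding and growth inhibition scored against untreated samples 3 days after infestation; control counted when any category exceeds untreated.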

[10] = system: Tetranychus urticae (Two-Spotted Spider Mite); experiment: Example B11: Tetranychus urticae (two-spotted spider mite), feeding/contact activity; conditions: 192 h, application rate 200 ppm, mixed population (mobile stages), 8 days after infestation
Experimental: Example B11: Tetranychus urticae (Two-Spotted Spider Mite):Feeding/Contact Activity
Bean leaf discs on agar in 24-well microtiter plates were sprayed with aqueous test solutions prepared from 10,000 ppm DMSO stock solutions. After drying the leaf discs were infested with a mite population of mixed ages. The samples were assessed for mortality on mixed population (mobile stages) 8 days after infestation.

[11] = system: Myzus persicae (Green Peach Aphid); experiment: Example B13: activity against Myzus persicae (green peach aphid), 96-well sucrose solution; conditions: 120 h, application rate 50 ppm, 5 days after infestation
Summary of the method: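 Compounds, from 10,000 ppm DMSO stocks, mixed into sucrose solution in wells under stretched Parafilm, with aphids placed on the membrane in an inverted feeding setup. Mortality scored 5 days after infestation.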

[12] = system: Spodoptera littoralis (Egyptian Cotton Leaf Worm); experiment: Example B10: Spodoptera littoralis (Egyptian cotton leaf worm), uptake by lettuce roots from agar, eggs; conditions: 144 h, test rate 12.5 ppm, lettuce root uptake, 6 days after infestation, read-out: effect in at least one of the three categories (mortality, anti-feeding, or growth inhibition)
Summary of the method: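 Compound mixed into agar from a 10,000 ppm DMSO stock; lettuce grown on it for 7 days for root uptake. Cut leaves infested with Spodoptera eggs; mortality, anti-feedant effect and growth inhibition scored against untreated samples 6 days after infestation.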

[13] = system: Thrips tabaci (Onion Thrips); experiment: Example B12: Thrips tabaci (onion thrips), feeding/contact activity; conditions: 144 h, application rate 200 ppm, mixed ages, 6 days after infestation
Experimental: Example B12: Thrips tabaci (Onion Thrips) Feeding/Contact Activity
Sunflower leaf discs were placed on agar in 24-well microtiter plates and sprayed with aqueous test solutions prepared from 10,000 ppm DMSO stock solutions. After drying the leaf discs were infested with a thrips population of mixed ages. The samples were assessed for mortality 6 days after infestation.

[14] = system: Plutella xylostella (Diamondback Moth); experiment: Example B14: activity against Plutella xylostella (diamondback moth), 96-well artificial diet; conditions: 216 h, application rate 500 ppm, 9 days after infestation
Summary of the method: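 Diet in 96-well plates was treated with aqueous dilutions of 10,000 ppm DMSO stocks, dried, and infested with 30 eggs per well via a netted lid; hatching L1 larvae fed on the diet. Mortality scored 9 days after infestation.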

Cc1nc(C(C)NC(=O)c2cc(C(F)(F)F)cc(C3(C#N)CC3)c2)n(-c2ncccn2)n1 (stereo not drawn) [P83, 3-(1-cyanocyclopropyl)-N-[1-(5-methyl-2-pyrimidin-2-yl-1,2,4-triazol-3-yl)ethyl]-5-(trifluoromethyl)benzamide]
≥ 80%: percent effect (mortality or growth inhibition) at 200 ppm [1] | percent effect (mortality or growth inhibition) at 200 ppm [2] | mortality at 200 ppm [3] | percent control (mortality, anti-feedant effect or growth inhibition) at 200 ppm [4] | percent effect (mortality or growth inhibition) at 200 ppm [5] | mortality at 200 ppm [6] | mortality at 24 ppm [7] | mortality at 12 ppm [8] | percent control (mortality, anti-feedant effect or growth inhibition) at 200 ppm [9] | mortality at 200 ppm [10] | mortality at 50 ppm [11]

CC(NC(=O)c1cc(C(F)(F)F)cc(C2(C#N)CC2)c1)c1ncnn1-c1ncccn1 (stereo not drawn) [P85, 3-(1-cyanocyclopropyl)-N-[1-(2-pyrimidin-2-yl-1,2,4-triazol-3-yl)ethyl]-5-(trifluoromethyl)benzamide]
≥ 80%: percent effect (mortality or growth inhibition) at 200 ppm [1] | percent effect (mortality or growth inhibition) at 200 ppm [2] | mortality at 200 ppm [3] | percent control (mortality, anti-feedant effect or growth inhibition) at 200 ppm [4] | percent effect (mortality or growth inhibition) at 200 ppm [5] | mortality at 200 ppm [6] | mortality at 12 ppm [8] | percent control (mortality, anti-feedant effect or growth inhibition) at 200 ppm [9] | percent effect (mortality, anti-feeding or growth inhibition) at 12.5 ppm [12] | mortality at 50 ppm [11]

CC(NC(=O)c1cc(-c2cccnc2Cl)cc(C(F)(F)F)c1)c1ncnn1-c1ncccn1 (stereo not drawn) [P62, 3-(2-chloro-3-pyridyl)-N-[1-(2-pyrimidin-2-yl-1,2,4-triazol-3-yl)ethyl]-5-(trifluoromethyl)benzamide]
≥ 80%: mortality at 200 ppm [10]

CC(NC(=O)c1cc(C(F)(F)F)cc(S(C)(=O)=O)c1)c1ncnn1-c1ncccn1 (stereo not drawn) [P64, 3-methylsulfonyl-N-[1-(2-pyrimidin-2-yl-1,2,4-triazol-3-yl)ethyl]-5-(trifluoromethyl)benzamide]
≥ 80%: percent effect (mortality or growth inhibition) at 200 ppm [1] | percent effect (mortality or growth inhibition) at 200 ppm [2] | mortality at 200 ppm [3] | percent control (mortality, anti-feedant effect or growth inhibition) at 200 ppm [4] | percent effect (mortality or growth inhibition) at 200 ppm [5] | mortality at 200 ppm [6] | mortality at 24 ppm [7] | mortality at 12 ppm [8] | percent control (mortality, anti-feedant effect or growth inhibition) at 200 ppm [9] | mortality at 50 ppm [11]

CC(c1ncnn1-c1ncccn1)N(CC1CC1)C(=O)c1cc(C(F)(F)F)cc(S(C)(=O)=O)c1 (stereo not drawn) [P34, N-(cyclopropylmethyl)-3-methylsulfonyl-N-[1-(2-pyrimidin-2-yl-1,2,4-triazol-3-yl)ethyl]-5-(trifluoromethyl)benzamide]
≥ 80%: percent effect (mortality or growth inhibition) at 200 ppm [1] | percent effect (mortality or growth inhibition) at 200 ppm [2] | percent effect (mortality or growth inhibition) at 200 ppm [5] | mortality at 200 ppm [6] | mortality at 24 ppm [7] | mortality at 12 ppm [8] | mortality at 200 ppm [10] | mortality at 200 ppm [13] | mortality at 50 ppm [11] | mortality at 500 ppm [14]

CC(c1ncnn1-c1ncccn1)N(CC1CC1)C(=O)c1cc(C(F)(F)F)cc(C2(C(F)(F)F)CC2)c1 (stereo not drawn) [P45, N-(cyclopropylmethyl)-N-[1-(2-pyrimidin-2-yl-1,2,4-triazol-3-yl)ethyl]-3-(trifluoromethyl)-5-[1-(trifluoromethyl)cyclopropyl]benzamide]
≥ 80%: percent effect (mortality or growth inhibition) at 200 ppm [1] | percent effect (mortality or growth inhibition) at 200 ppm [2] | mortality at 200 ppm [3] | percent effect (mortality or growth inhibition) at 200 ppm [5] | mortality at 24 ppm [7] | mortality at 12 ppm [8] | percent control (mortality, anti-feedant effect or growth inhibition) at 200 ppm [9] | percent effect (mortality, anti-feeding or growth inhibition) at 12.5 ppm [12] | mortality at 50 ppm [11] | mortality at 500 ppm [14]

CC(c1ncnn1-c1ncccn1)N(CC1CC1)C(=O)c1cc(C(C)(C)C#N)cc(Cl)n1 (stereo not drawn) [P27, 6-chloro-4-(1-cyano-1-methyl-ethyl)-N-(cyclopropylmethyl)-N-[1-(2-pyrimidin-2-yl-1,2,4-triazol-3-yl)ethyl]pyridine-2-carboxamide]
≥ 80%: percent effect (mortality or growth inhibition) at 200 ppm [2] | percent effect (mortality or growth inhibition) at 200 ppm [5] | mortality at 200 ppm [10] | mortality at 50 ppm [11] | mortality at 500 ppm [14]

CC(NC(=O)c1cc(C(F)(F)F)cc(C(C)(C)C#N)c1)c1ncnn1-c1ncc(Br)cn1 (stereo not drawn) [P79, N-[1-[2-(5-bromopyrimidin-2-yl)-1,2,4-triazol-3-yl]ethyl]-3-(1-cyano-1-methyl-ethyl)-5-(trifluoromethyl)benzamide]
≥ 80%: percent effect (mortality or growth inhibition) at 200 ppm [1] | percent effect (mortality or growth inhibition) at 200 ppm [2] | percent control (mortality, anti-feedant effect or growth inhibition) at 200 ppm [4] | percent effect (mortality or growth inhibition) at 200 ppm [5] | percent control (mortality, anti-feedant effect or growth inhibition) at 200 ppm [9] | mortality at 200 ppm [10]
